Measured values as given in US20060241132A1, “Spiro derivatives and adhesion molecule inhibitors comprising the same as active ingredient” (Toray Industries, Inc. A Corporation of Japan, priority 2002, published 2006).

Key:
soluble VLA-4 = soluble VLA-4 (Homo sapiens, UniProt P05556+P13612); experiment: Inhibition of binding between CS-1 peptide and soluble VLA-4; conditions: absorbance at 490 nm, read-out: Inhibitory activity (IC50: nM)
Experimental: The inhibitory activity of the compound according to the present invention against the adhesion of VLA-4 may be determined by using an adhesion-measuring system in which the adhesion between VLA-4-expressing cells such as Ramos cells or Jurkat cells and fibronectin or fibronectin fragment such as a peptide containing CS-1 sequence (Gly Pro Glu He Leu Asp Val Pro Ser Thr) (hereinafter referred to as “CS-1 peptide”) immobilized on an immunoplate is measured. Alternatively, a binding-measuring system in which the adhesion between VLA-4 protein and fibronectin or fibronectin fragment such as CS-1 peptide immobilized on an immunoplate is measured may be used. In the present invention, it is preferred to evaluate the inhibitory activity of a compound using a binding-measuring system of soluble VLA-4 with CS-1 peptide (WO 98/32771), but the method is not restricted thereto. When testing the inhibitory effect of a compound, it is preferred to mix the soluble VLA-4 and the test compound beforehand.
Inhibitory Effect of Compounds Against Binding between CS-1 Peptide and Soluble VLA-4
The test compounds were evaluated in accordance with the method described in WO 98/32771. That is, in accordance with the teaching of a report (J. Bio. Chem., 262, 6886 (1987)), a conjugate between a peptide (Gys Leu His Gly Pro Glu Glu Ile Leu Asp Val Pro Ser Thr) containing CS-1 sequence and rabbit IgG (Sigma) was prepared. […]
Each compound and soluble VLA-4 (100 μl) were preliminarily reacted at room temperature for 20 minutes, and then the resulting mixture was allowed to react with the CS-1 peptide in each well at 30° C. for 3 hours. […] Then o-phenylenediamine as a substrate was added to color the reaction solution, and the absorbance at 490 nm was measured. From this absorbance, the binding inhibitory activity of each compound was determined.

[1] = tested on: DNFB-induced ear swelling in Balb/c mouse; experiment: Mouse allergic inflammation: DNFB-induced ear swelling after anti-DNP IgE sensitization; type: in vivo; conditions: male Balb/c mouse, anti-DNP IgE sensitized
Experimental: Inhibitory Effect of Compounds Against Mouse Allergic Inflammation
Using a seven-week old male Balb/c mouse (Charles River Japan, Inc.), sensitization was carried out by intravenously administering anti-DNP mouse IgE antibody. Twenty-four hours after sensitization, 0.38% DNFB (2,4-dinitrofluorobenzene) which was dissolved in a mixed solution of acetone:olive oil at 4:1 was applied to the right auricle of the mouse to induce inflammation. The thickness of both auricles was measured each hour after induction with a thickness gauge to calculate the ear swelling ratio (%) after induction versus pre-induction. The test compounds were dissolved in ethanol for applying to the auricle before induction.

soluble VLA-4, sequence (P13612 35-977 limits assumed): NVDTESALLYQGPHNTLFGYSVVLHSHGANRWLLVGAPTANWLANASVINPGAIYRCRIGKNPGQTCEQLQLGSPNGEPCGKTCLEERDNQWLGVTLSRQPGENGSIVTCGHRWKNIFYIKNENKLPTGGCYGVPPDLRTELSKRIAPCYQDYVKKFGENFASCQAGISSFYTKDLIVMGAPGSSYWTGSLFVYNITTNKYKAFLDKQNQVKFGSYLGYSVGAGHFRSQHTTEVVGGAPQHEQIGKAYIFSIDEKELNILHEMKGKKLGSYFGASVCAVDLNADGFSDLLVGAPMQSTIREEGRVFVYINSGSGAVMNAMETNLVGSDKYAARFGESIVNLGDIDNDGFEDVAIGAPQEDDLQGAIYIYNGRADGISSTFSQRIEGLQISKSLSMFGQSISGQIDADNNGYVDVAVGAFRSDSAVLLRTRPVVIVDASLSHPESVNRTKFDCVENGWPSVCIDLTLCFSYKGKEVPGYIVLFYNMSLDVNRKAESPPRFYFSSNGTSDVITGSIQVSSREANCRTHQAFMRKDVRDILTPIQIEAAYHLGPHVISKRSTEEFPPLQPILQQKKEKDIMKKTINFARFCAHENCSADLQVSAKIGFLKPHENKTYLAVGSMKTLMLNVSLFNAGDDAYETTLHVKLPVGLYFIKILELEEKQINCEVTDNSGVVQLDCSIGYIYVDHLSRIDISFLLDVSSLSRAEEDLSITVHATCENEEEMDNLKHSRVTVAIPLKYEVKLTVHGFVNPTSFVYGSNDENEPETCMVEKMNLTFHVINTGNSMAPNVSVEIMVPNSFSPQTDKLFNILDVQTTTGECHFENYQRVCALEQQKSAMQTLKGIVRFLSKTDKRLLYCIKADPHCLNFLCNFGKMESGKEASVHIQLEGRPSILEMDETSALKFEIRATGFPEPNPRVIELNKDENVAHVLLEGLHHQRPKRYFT
soluble VLA-4, sequence (P05556 21-728 limits assumed): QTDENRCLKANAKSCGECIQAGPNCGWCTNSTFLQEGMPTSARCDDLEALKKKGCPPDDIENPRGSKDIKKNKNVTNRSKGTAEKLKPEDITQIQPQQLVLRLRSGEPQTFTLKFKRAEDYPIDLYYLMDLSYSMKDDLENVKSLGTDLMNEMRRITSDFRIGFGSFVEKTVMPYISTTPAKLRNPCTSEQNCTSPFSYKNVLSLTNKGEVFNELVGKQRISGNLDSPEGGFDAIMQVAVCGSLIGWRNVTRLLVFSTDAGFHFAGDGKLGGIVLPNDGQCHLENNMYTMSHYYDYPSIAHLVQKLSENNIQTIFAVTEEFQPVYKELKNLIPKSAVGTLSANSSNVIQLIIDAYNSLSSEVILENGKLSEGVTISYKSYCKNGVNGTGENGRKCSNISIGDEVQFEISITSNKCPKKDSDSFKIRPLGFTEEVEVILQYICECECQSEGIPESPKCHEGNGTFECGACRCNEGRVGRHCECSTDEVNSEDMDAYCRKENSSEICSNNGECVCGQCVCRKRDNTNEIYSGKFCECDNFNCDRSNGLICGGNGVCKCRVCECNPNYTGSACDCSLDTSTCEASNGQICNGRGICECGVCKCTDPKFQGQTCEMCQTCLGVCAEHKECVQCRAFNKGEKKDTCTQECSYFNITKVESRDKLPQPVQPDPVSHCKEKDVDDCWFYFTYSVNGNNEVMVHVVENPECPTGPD

Structure (SMILES) | IC50 (soluble VLA-4) [nM] | ED 50 value, suppression of the increase in the ratio of ear swelling ([1]; 0.38% DNFB on right auricle, compound in ethanol applied to the auricle before induction) [mg/kg] | suppression of the increase in the ratio of ear swelling from DNFB induction ([1]; DNFB-induced, compound applied to the auricle before induction)
CC(=O)N1CCC[C@H]1C(=O)NC(CNC(=O)N1CCC2(CC1)C(=O)NCN2c1ccccc1)C(=O)O (stereo partly drawn) [Compound 16, 2-(((2S)-1-Acetylpyrrolidine-2-yl)carbonylamino)-3-((2,4,8-triaza-1-oxo-4-phenylspiro[4.5]dec-8-yl)carbonylamino)propanoic acid] | 110 | 0.8 | suppressed the increase in the ratio of ear swelling in a dose-dependent manner
CC(=O)N1CCCCC1C(=O)NC(CNC(=O)N1CCC2(CC1)C(=O)NCN2c1ccccc1)C(=O)O (centres unmarked) [Compound 18, 2-((1-Acetyl(2-piperidyl))carbonylamino)-3-((2,4,8-triaza-1-oxo-4-phenylspiro[4.5]dec-8-yl)carbonylamino)propanoic acid] | 65 |  | 
Cc1cccc(Cl)c1S(=O)(=O)NC(CNC(=O)N1CCC2(CC1)C(=O)N(C)CN2c1ccccc1)C(=O)O (centres unmarked) [Compound 8, 2-(((2-Chloro-6-methylphenyl)sulfonyl)amino)-3-((2,4,8-triaza-2-methyl-1-oxo-4-phenylspiro[4.5]dec-8-yl)carbonylamino)propanoic acid] | 110 |  | 
